From patent US11680060B2, “Bicycloheptane pyrrolidine orexin receptor agonists” (Merck Sharp & Dohme LLC, priority 2020, dated 2023)

Target: human OX2R (Homo sapiens (Human), UniProt O43614)
Assay: IPOne (IP-1) assay in CHO cells expressing human OX2R
Assay type: cell-based
Details: for IC50: CHO cells expressing human OX2R, IP-One detection, 2 hours incubation, EC50 = inflection point of four parameter logistic fit, read-out: hOX2R_IP_IC50; for Emax (%) / Emax: percentage of mean max effect of a reference compound at 1 uM (100% activity by comparison to Orexin A), human OX2R; for Emax: CHO, read-out: Emax (%)
Procedure, shortened: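 CHO cells stably expressing human OX2R were stimulated with compound (10-point ½-log dilutions) for 2 h at 37 °C. IP-1 accumulation was read by HTRF (IP-One, 665/620 nm). EC50 from a four-parameter fit; % effect relative to 1 μM reference agonist control.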

Sequence of human OX2R (O43614 whole entry): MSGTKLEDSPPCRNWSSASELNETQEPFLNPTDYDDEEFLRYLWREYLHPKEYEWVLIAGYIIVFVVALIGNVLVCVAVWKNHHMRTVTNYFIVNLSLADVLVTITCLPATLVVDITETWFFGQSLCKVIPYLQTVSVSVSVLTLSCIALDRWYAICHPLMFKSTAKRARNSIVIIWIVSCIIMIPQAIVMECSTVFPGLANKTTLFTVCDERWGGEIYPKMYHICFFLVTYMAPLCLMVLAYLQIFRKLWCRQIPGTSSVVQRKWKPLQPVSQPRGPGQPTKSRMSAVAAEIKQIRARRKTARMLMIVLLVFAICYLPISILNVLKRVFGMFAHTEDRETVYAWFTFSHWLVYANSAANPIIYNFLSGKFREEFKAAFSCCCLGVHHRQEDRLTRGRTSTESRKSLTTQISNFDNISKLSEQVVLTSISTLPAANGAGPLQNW

Compound	IC50 [nM]	Emax (%)	Emax [%]
COC(=O)N1CC[C@H](NS(C)(=O)=O)[C@@H]1CO[C@H]1CC[C@@]2(c3ncccn3)C[C@H]2C1 (single isomer, unassigned) [Example 24]	238	99.8	
CC(C)OC(=O)N1[C@H](C)C[C@H](NS(C)(=O)=O)[C@@H]1CO[C@H]1CC[C@@]2(c3ncc(F)cn3)C[C@H]2C1 [Example 28, isopropyl (2R,3S,5R)-2-((((1S,3S,6R)-6-(5-fluoropyrimidin-2-yl)bicyclo[4.1.0]heptan-3-yl)oxy)methyl)-5-methyl-3-(methylsulfonamido)pyrrolidine-1-carboxylate]			103
C[C@@H]1C[C@H](NS(C)(=O)=O)[C@H](CO[C@H]2CC[C@@]3(c4ncc(F)cn4)C[C@H]3C2)N1C(=O)OCC1(F)CCC1 [Example 53, (1-fluorocyclobutyl)methyl (2R,3S,5R)-2-((((1S,3S,6R)-6-(5-fluoropyrimidin-2-yl)bicyclo[4.1.0]heptan-3-yl)oxy)methyl)-5-methyl-3-(methylsulfonamido)pyrrolidine-1-carboxylate]			104
CCC(OC(=O)N1[C@H](C)C[C@H](NS(C)(=O)=O)[C@@H]1CO[C@H]1CC[C@@]2(c3ncc(F)cn3)C[C@H]2C1)C(F)F (stereo partly drawn) [Example 50, 1,1-difluorobutan-2-yl (2R,3S,5R)-2-((((1S,3S,6R)-6-(5-fluoropyrimidin-2-yl)bicyclo[4.1.0]heptan-3-yl)oxy)methyl)-5-methyl-3-(methylsulfonamido)pyrrolidine-1-carboxylate]			104
C[C@@H]1C[C@H](NS(C)(=O)=O)[C@H](CO[C@H]2CC[C@@]3(c4ncc(F)cn4)C[C@H]3C2)N1C(=O)OCCF [Example 62, 2-Fluoroethyl (2R,3S,5R)-2-((((1S,3S,6R)-6-(5-fluoropyrimidin-2-yl)bicyclo[4.1.0]heptan-3-yl)oxy)methyl)-5-methyl-3-(methylsulfonamido)pyrrolidine-1-carboxylate]			100
COC(=O)N1[C@H](C)C[C@H](NS(=O)(=O)N(C)C)[C@@H]1COC1CCC2(c3cnccn3)CC2C1 (single isomer, unassigned) [Example 11]			96.1
COC(=O)N1[C@H](C)C[C@H](NS(C)(=O)=O)[C@@H]1COC1CCC2(c3ncccn3)CC2C1 (single isomer, unassigned) [Example 17]	2260	89.7	
COC(=O)N1[C@H](C)C[C@H](NS(=O)(=O)Cc2ccccc2)[C@@H]1CO[C@H]1CC[C@@]2(c3ncc(F)cn3)C[C@H]2C1 [Example 34, methyl (2R,3S,5R)-2-((((1S,3S,6R)-6-(5-fluoropyrimidin-2-yl)bicyclo[4.1.0]heptan-3-yl)oxy)methyl)-5-methyl-3-((phenylmethyl)sulfonamido)pyrrolidine-1-carboxylate]			96.5
COC(=O)N1[C@H](C)C[C@H](NS(C)(=O)=O)[C@@H]1COC1CCC2(c3ncccn3)CC2C1 (single isomer, unassigned) [Example 16]	16.4	102.2	
C[C@@H]1C[C@H](NS(C)(=O)=O)[C@H](CO[C@H]2CC[C@@]3(c4ncc(F)cn4)C[C@H]3C2)N1C(=O)OCC(F)C1CCC1 (stereo partly drawn) [Example 54, 2-cyclobutyl-2-fluoroethyl (2R,3S,5R)-2-((((1S,3S,6R)-6-(5-fluoropyrimidin-2-yl)bicyclo[4.1.0]heptan-3-yl)oxy)methyl)-5-methyl-3-(methylsulfonamido)pyrrolidine-1-carboxylate]			104
C[C@@H]1C[C@H](NS(C)(=O)=O)[C@H](CO[C@H]2CC[C@@]3(c4ncc(F)cn4)C[C@H]3C2)N1C(=O)OCC1CC1(F)F (stereo partly drawn) [Example 59, (2,2-difluorocyclopropyl)methyl (2R,3S,5R)-2-((((1S,3S,6R)-6-(5-fluoropyrimidin-2-yl)bicyclo[4.1.0]heptan-3-yl)oxy)methyl)-5-methyl-3-(methylsulfonamido)pyrrolidine-1-carboxylate]			104
COC(=O)N1[C@H](C)C[C@H](NS(=O)(=O)CCl)[C@@H]1CO[C@H]1CC[C@@]2(c3ncc(F)cn3)C[C@H]2C1 [Example 37, methyl (2R,3S,5R)-3-((chloromethyl)sulfonamido)-2-((((1S,3S,6R)-6-(5-fluoropyrimidin-2-yl)bicyclo[4.1.0]heptan-3-yl)oxy)methyl)-5-methylpyrrolidine-1-carboxylate]			103
COC(=O)N1[C@H](C)C[C@H](NS(=O)(=O)C(C)C)[C@@H]1CO[C@H]1CC[C@@]2(c3ncc(F)cn3)C[C@H]2C1 [Example 38, methyl (2R,3S,5R)-2-((((1S,3S,6R)-6-(5-fluoropyrimidin-2-yl)bicyclo[4.1.0]heptan-3-yl)oxy)methyl)-5-methyl-3-((1-methylethyl)sulfonamido)pyrrolidine-1-carboxylate]			100
COC(=O)N1[C@H](C)C[C@H](NS(C)(=O)=O)[C@@H]1CO[C@@H]1CC[C@]2(c3ncccn3)C[C@@H]2C1 (single isomer, unassigned) [Example 20]		99.7	

Now from value to molecule:

IC50 [nM]	Emax (%)	Emax [%]	Compound
1.5			COC(=O)N1[C@H](C)C[C@H](NS(=O)(=O)N(C)C)[C@@H]1COC1CCC2(c3ncc(F)cn3)CC2C1 (stereo partly drawn) [Example 169, methyl (2R,3S,5R)-3-((N,N-dimethylsulfamoyl)amino)-2-(((6-(5-fluoropyrimidin-2-yl)bicyclo[4.1.0]heptan-3-yl)oxy)methyl)-5-methylpyrrolidine-1-carboxylate]
1		100	CC(C)OC(=O)N1[C@H](C)C[C@H](NS(=O)(=O)CF)[C@@H]1CO[C@H]1CC[C@@]2(c3ncc(F)cn3)C[C@H]2C1 (single isomer, unassigned) [Example 100]
		101	C[C@@H]1C[C@H](NS(C)(=O)=O)[C@H](CO[C@H]2CC[C@@]3(c4ncc(F)cn4)C[C@H]3C2)N1C(=O)OCC(F)F [Example 66, 2,2-difluoroethyl (2R,3S,5R)-2-((((1S,3S,6R)-6-(5-fluoropyrimidin-2-yl)bicyclo[4.1.0]heptan-3-yl)oxy)methyl)-5-methyl-3-(methylsulfonamido)pyrrolidine-1-carboxylate]
		94.6	COC(=O)N1CC[C@H](NS(C)(=O)=O)[C@@H]1COC1CCC2(c3ncccn3)CC2C1 (stereo partly drawn) [Example 185, methyl (2R,3S)-3-(methylsulfonamido)-2-(((6-(pyrimidin-2-yl)bicyclo[4.1.0]heptan-3-yl)oxy)methyl)pyrrolidine-1-carboxylate]
19.2		102	COC(=O)N1[C@H](C)C[C@H](NS(C)(=O)=O)[C@@H]1CO[C@H]1CC[C@@]2(c3ncc(C)cn3)C[C@H]2C1 (single isomer, unassigned) [Example 156]
3.3		102	CC(C)OC(=O)N1[C@H](C)C[C@H](NS(=O)(=O)C(F)F)[C@@H]1CO[C@@H]1CC[C@]2(c3ncc(F)cn3)C[C@@H]2C1 (single isomer, unassigned) [Example 91]
4.5		100	CC(C)OC(=O)N1[C@H](C)C[C@H](NS(=O)(=O)C(F)F)[C@@H]1CO[C@H]1CC[C@@]2(c3ncc(Cl)cn3)C[C@H]2C1 (single isomer, unassigned) [Example 81]
775	73.2		CC(C)OC(=O)N1[C@H](C)C[C@H](NS(=O)(=O)C(F)F)[C@@H]1COC1CCC2(c3ncc(F)cn3)CC2C1 (single isomer, unassigned) [Example 92]
34.5		102	CC(C)OC(=O)N1[C@H](C)C[C@H](NS(=O)(=O)CF)[C@@H]1CO[C@@H]1CC[C@]2(c3ncc(Br)cn3)C[C@@H]2C1 (single isomer, unassigned) [Example 104]
		104	CCS(=O)(=O)N[C@H]1CCCN(C(=O)OC(C)C)[C@H]1COC1CC[C@@]2(c3ncc(F)cn3)CC2C1 (stereo partly drawn) [Example 126, isopropyl (2R,3S)-3-(ethylsulfonamido)-2-(((6-(5-fluoropyrimidin-2-yl)bicyclo[4.1.0]heptan-3-yl)oxy)methyl)piperidine-1-carboxylate]
		99.9	COC(=O)N1[C@@H]2CCC[C@@H]2[C@H](NS(C)(=O)=O)[C@@H]1COC1CCC2(c3ncccn3)CC2C1 (stereo partly drawn) [Example 175, methyl (2R,3S,3aS,6aR)-3-(methylsulfonamido)-2-(((6-(pyrimidin-2-yl)bicyclo[4.1.0]heptan-3-yl)oxy)methyl)hexahydrocyclopenta[b]pyrrole-1(2H)-carboxylate]
		104	COC(=O)N1[C@H](C)C[C@H](NS(=O)(=O)CF)[C@@H]1COC1CCC2(c3ncc(Br)cn3)CC2C1 (stereo partly drawn) [Example 89, methyl (2R,3S,5R)-2-(((6-(5-bromopyrimidin-2-yl)bicyclo[4.1.0]heptan-3-yl)oxy)methyl)-3-((fluoromethyl)sulfonamido)-5-methylpyrrolidine-1-carboxylate]
		101	COC(=O)N1[C@H](C)C[C@H](NS(=O)(=O)CF)[C@@H]1COC1CCC2(c3ncc(Cl)c(OC)n3)CC2C1 (stereo partly drawn) [Example 86, methyl (2R,3S,5R)-2-(((6-(5-chloro-4-methoxypyrimidin-2-yl)bicyclo[4.1.0]heptan-3-yl)oxy)methyl)-3-((fluoromethyl)sulfonamido)-5-methylpyrrolidine-1-carboxylate]
0.37		99.3	CC(C)OC(=O)N1CCC[C@H](NS(=O)(=O)CF)[C@@H]1CO[C@H]1CC[C@@]2(c3ncc(F)cn3)C[C@H]2C1 (single isomer, unassigned) [Example 124]
		102	CC(C)OC(=O)N1CCC[C@H](NS(=O)(=O)C(F)(F)F)[C@@H]1COC1CC[C@@]2(c3ncc(F)cn3)CC2C1 (stereo partly drawn) [Example 123, isopropyl (2R,3S)-2-(((6-(5-fluoropyrimidin-2-yl)bicyclo[4.1.0]heptan-3-yl)oxy)methyl)-3-((trifluoromethyl)sulfonamido)piperidine-1-carboxylate]
